# Source: US10906890B2, “Triazole phenyl compounds as agonists of the APJ receptor” (AMGEN INC., priority 2016, dated 2021)
# Target: human APJ receptor (Homo sapiens (Human), UniProt P35414)
# Assay: [35S]GTPγS binding assay on membranes from CHO cells stably expressing human APJ receptor
# Assay type: biochemical
# Settings: means of several independent experiments, read-out: Activity hAPJ SPA EC50 IP
# Protocol: The human APJ receptor was cloned by polymerase chain reaction and the gene encoding the receptor was subcloned in pFLAG-CMV™-3 expression vector (Sigma, Saint Louis, Mo. USA) in-house at Amgen. A GTPγS binding assay was performed on membranes prepared from CHO cells stably expressing human APJ receptor. The optimum experimental conditions for the concentrations of GDP, MgCl2, and NaCl in the assay buffer were initially determined. […] Incubation was at RT for 90 min and the microplate was read using a ViewLux™ ultra HTS Microplate Imager (PerkinElmer, Inc.). All the results presented are means of several independent experiments and analyzed by non-linear regression methods using the commercially available program Prism (GraphPad, San Diego, Calif.) providing the EC50 values detailed in Table 28.
# human APJ receptor, sequence (P35414 whole entry): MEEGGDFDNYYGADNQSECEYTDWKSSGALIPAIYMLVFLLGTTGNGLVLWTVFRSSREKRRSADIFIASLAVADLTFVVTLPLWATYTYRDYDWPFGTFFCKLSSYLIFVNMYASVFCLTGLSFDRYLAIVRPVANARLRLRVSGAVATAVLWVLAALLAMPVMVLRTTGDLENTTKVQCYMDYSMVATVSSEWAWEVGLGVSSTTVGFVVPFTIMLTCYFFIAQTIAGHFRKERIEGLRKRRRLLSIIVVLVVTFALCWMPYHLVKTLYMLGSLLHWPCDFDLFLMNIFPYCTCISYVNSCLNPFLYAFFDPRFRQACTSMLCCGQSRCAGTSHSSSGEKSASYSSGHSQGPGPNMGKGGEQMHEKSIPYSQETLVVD
row,SMILES,EC50 [nM]
1,"COc1cccc(OC)c1-n1c(NS(=O)(=O)[C@@H](C)[C@H](C)c2cnc(C)cn2)nnc1-c1ccccc1 [Example 25.0, (2S,3R)-N-(4-(2,6-dimethoxyphenyl)-5-phenyl-4H-1,2,4-triazol-3-yl)-3-(5-methyl-2-pyrazinyl)-2-butanesulfonamide]",1.3
2,"COc1ncnc(OC)c1-n1c(NS(=O)(=O)[C@@H](C)[C@H](C)c2cnc(C)cn2)nnc1-c1ccccc1 [Example 26.0, (2S,3R)-N-(4-(4,6-dimethoxy-5-pyrimidinyl)-5-phenyl-4H-1,2,4-triazol-3-yl)-3-(5-methyl-2-pyrazinyl)-2-butanesulfonamide]",5.2
3,"CO[C@H]1CCC[C@@H](OC)[C@@H]1n1c(NS(=O)(=O)[C@@H](C)[C@H](C)c2ncc(C)cn2)nnc1-c1ccccc1 [Example 33.0, (2S,3R)—N-(4-((1r,2R,6S)-2,6-Dimethoxycyclohexyl)-5-phenyl-4H-1,2,4-triazol-3-yl)-3-(5-methyl-2-pyrimidinyl)-2-butanesulfonamide]",230
4,"COc1ccnc(OC)c1-n1c(NS(=O)(=O)[C@@H](C)[C@H](OC)c2ncc(C)cn2)nnc1-c1ccccc1 [Example 36.0, (1R,2S,P)-N-(4-(2,4-dimethoxy-3-pyridinyl)-5-phenyl-4H-1,2,4-triazol-3-yl)-1-methoxy-1-(5-methyl-2-pyrimidinyl)-2-propanesulfonamide and (1R,2S,S)-N-(4-(2,4-dimethoxy-3-pyridinyl)-5-phenyl-4H-1,2,4-triazol-3-yl)-1-methoxy-1-(5-methyl-2-pyrimidinyl)-2-propanesulfonamide]",1.9
5,"COc1cccc(OC)c1-n1c(NS(=O)(=O)[C@@H](C)[C@H](OC)c2ncc(C)cn2)nnc1-c1ccc2c(c1)OC(F)(F)O2 [Example 39.0, (1R,2S)-N-(5-(2,2-difluoro-1,3-benzodioxol-5-yl)-4-(2,6-dimethoxyphenyl)-4H-1,2,4-triazol-3-yl)-1-methoxy-1-(5-methyl-2-pyrimidinyl)-2-propanesulfonamide]",160
6,"Cc1cnc([C@@H](C)[C@H](C)S(=O)(=O)Nc2nnc(-c3ccccc3)n2-c2c(F)cccc2F)nc1 [Example 40.0, (2S,3R)-N-(4-(2,6-difluorophenyl)-5-phenyl-4H-1,2,4-triazol-3-yl)-3-(5-methyl-2-pyrimidinyl)-2-butanesulfonamide]",4.4
7,"CO[C@H](c1ncc(C)cn1)[C@H](C)S(=O)(=O)Nc1nnc(-c2ccccc2)n1-c1c(F)cccc1F [Example 41.0, (1R,2S)-N-(4-(2,6-difluorophenyl)-5-phenyl-4H-1,2,4-triazol-3-yl)-1-methoxy-1-(5-methyl-2-pyrimidinyl)-2-propanesulfonamide]",4.7
8,"Cc1cnc([C@H](OC(C)C)[C@H](C)S(=O)(=O)Nc2nnc(-c3ccccc3)n2-c2c(F)cccc2F)nc1 [Example 42.0, (1S,2S)-N-(4-(2,6-difluorophenyl)-5-phenyl-4H-1,2,4-triazol-3-yl)-1-(1-methylethoxy)-1-(5-methyl-2-pyrimidinyl)-2-propanesulfonamide]",3.4
9,"Cc1cnc([C@@H](O[Si](C)(C)C(C)(C)C)[C@H](C)S(=O)(=O)Nc2nnc(-c3ccccc3)n2-c2c(F)cccc2F)nc1 [Example 44.0, (1R,2S)-1-((tert-butyl(dimethyl)silyl)oxy)-N-(4-(2,6-difluorophenyl)-5-phenyl-4H-1,2,4-triazol-3-yl)-1-(5-methyl-2-pyrimidinyl)-2-propanesulfonamide]",150
10,Cc1cnc([C@@H](O)[C@H](C)S(=O)(=O)Nc2nnc(-c3ccccc3)n2-c2c(F)cccc2F)nc1 [Example 45.0],34
11,"C[C@H](c1ncc(Cl)cn1)[C@H](C)S(=O)(=O)Nc1nnc(-c2ccccc2)n1-c1c(F)cccc1F [Example 46.0, (2S,3R)-3-(5-chloro-2-pyrimidinyl)-N-(4-(2,6-difluorophenyl)-5-phenyl-4H-1,2,4-triazol-3-yl)-2-butanesulfonamide]",1.7
12,"C[C@H](c1ncc(C#N)cn1)[C@H](C)S(=O)(=O)Nc1nnc(-c2ccccc2)n1-c1c(F)cccc1F [Example 47.0, (2S,3R)-3-(5-cyano-2-pyrimidinyl)-N-(4-(2,6-difluorophenyl)-5-phenyl-4H-1,2,4-triazol-3-yl)-2-butanesulfonamide]",48
13,COc1ncnc(OC)c1-n1c(NS(=O)(=O)[C@@H](C)[C@H](C)c2ncc(C)cn2)nnc1-c1cccc(C(F)(F)F)c1 [Example 48.0],23
14,"COc1ncnc(OC)c1-n1c(NS(=O)(=O)[C@@H](C)[C@H](C)c2ncc(C)cn2)nnc1-c1cccc(C#N)c1 [Example 50.0, (2S,3R)-N-(5-(3-cyanophenyl)-4-(4,6-dimethoxy-5-pyrimidinyl)-4H-1,2,4-triazol-3-yl)-3-(5-methyl-2-pyrimidinyl)-2-butanesulfonamide]",110
15,"COc1cccc(OC)c1-n1c(NS(=O)(=O)c2cncc(Br)c2)nnc1-c1ccccc1 [Example 60.0, 5-bromo-N-(4-(2,6-dimethoxyphenyl)-5-phenyl-4H-1,2,4-triazol-3-yl)-3-pyridinesulfonamide]",350
16,"C[C@H](c1ncc(Cl)cn1)[C@H](C)S(=O)(=O)Nc1nnc(-c2ccccc2)n1C1CCOCC1 [Example 61.0, (2S,3R)-3-(5-chloro-2-pyrimidinyl)-N-(5-phenyl-4-(tetrahydro-2H-pyran-4-yl)-4H-1,2,4-triazol-3-yl)-2-butanesulfonamide]",69
17,"CO[C@H](c1ncc(Cl)cn1)[C@H](C)S(=O)(=O)Nc1nnc(-c2ccccc2)n1C1CCOCC1 [Example 62.0, (1R,2S)-1-(5-chloro-2-pyrimidinyl)-1-methoxy-N-(5-phenyl-4-(tetrahydro-2H-pyran-4-yl)-4H-1,2,4-triazol-3-yl)-2-propanesulfonamide]",74
18,"Cc1cnc([C@H](OC(C)C)[C@H](C)S(=O)(=O)Nc2nnc(-c3ccccc3)n2C2CCOCC2)nc1 [Example 63.0, (1S,2S)-1-(1-methylethoxy)-1-(5-methyl-2-pyrimidinyl)-N-(5-phenyl-4-(tetrahydro-2H-pyran-4-yl)-4H-1,2,4-triazol-3-yl)-2-propanesulfonamide]",420
19,"COc1cccc(OC)c1-n1c(NS(=O)(=O)[C@@H](C)[C@H](OC)c2ncc(C)cn2)nnc1-c1ccc(C(C)(C)C)cc1 [Example 65.0, (1R,2S)—N-(5-(4-tert-Butylphenyl)-4-(2,6-dimethoxyphenyl)-4H-1,2,4-triazol-3-yl)-1-methoxy-1-(5-methyl-2-pyrimidinyl)-2-propanesulfonamide]",230
20,"COc1cccc(OC)c1-n1c(NS(=O)(=O)[C@@H](C)[C@H](OC)c2ncc(C)cn2)nnc1-c1ccc2c(c1)OCO2 [Example 66.0, (1R,2S)-N-(5-(1,3-benzodioxol-5-yl)-4-(2,6-dimethoxyphenyl)-4H-1,2,4-triazol-3-yl)-1-methoxy-1-(5-methyl-2-pyrimidinyl)-2-propanesulfonamide]",0.73
21,"COc1cccc(OC)c1-n1c(NS(=O)(=O)[C@@H](C)[C@H](OC)c2ncc(C)cn2)nnc1-c1ccccc1F [Example 67.0, (1R,2S)-N-(4-(2,6-dimethoxyphenyl)-5-(2-fluorophenyl)-4H-1,2,4-triazol-3-yl)-1-methoxy-1-(5-methyl-2-pyrimidinyl)-2-propanesulfonamide]",5.9
22,"COc1cccc(OC)c1-n1c(NS(=O)(=O)[C@@H](C)[C@H](OC)c2ncc(C)cn2)nnc1-c1cc(C(F)(F)F)cc(C(F)(F)F)c1 [Example 68.0, (1R,2S)-N-(5-(3,5-bis(trifluoromethyl)phenyl)-4-(2,6-dimethoxyphenyl)-4H-1,2,4-triazol-3-yl)-1-methoxy-1-(5-methyl-2-pyrimidinyl)-2-propanesulfonamide]",4.7
23,"COc1cccc(OC)c1-n1c(NS(=O)(=O)[C@@H](C)[C@H](OC)c2ncc(C)cn2)nnc1-c1ccc(OC(F)(F)F)cc1 [Example 69.0, (1R,2S)-N-(4-(2,6-dimethoxyphenyl)-5-(4-(trifluoromethoxy)phenyl)-4H-1,2,4-triazol-3-yl)-1-methoxy-1-(5-methyl-2-pyrimidinyl)-2-propanesulfonamide]",35
24,"COc1cccc(OC)c1-n1c(NS(=O)(=O)[C@@H](C)[C@H](OC)c2ncc(C)cn2)nnc1-c1ccc(Cl)c(Cl)c1 [Example 70.0, (1R,2S)-N-(5-(3,4-dichlorophenyl)-4-(2,6-dimethoxyphenyl)-4H-1,2,4-triazol-3-yl)-1-methoxy-1-(5-methyl-2-pyrimidinyl)-2-propanesulfonamide]",3.8
25,"COc1cccc(OC)c1-n1c(NS(=O)(=O)[C@@H](C)[C@H](OC)c2ncc(C)cn2)nnc1-c1ccc(Cl)cc1Cl [Example 71.0, (1R,2S)-N-(5-(2,4-dichlorophenyl)-4-(2,6-dimethoxyphenyl)-4H-1,2,4-triazol-3-yl)-1-methoxy-1-(5-methyl-2-pyrimidinyl)-2-propanesulfonamide]",160
26,"COc1cccc(OC)c1-n1c(NS(=O)(=O)[C@@H](C)[C@H](OC)c2ncc(C)cn2)nnc1-c1ccc(F)c(F)c1 [Example 72.0, (1R,2S)-N-(5-(3,4-difluorophenyl)-4-(2,6-dimethoxyphenyl)-4H-1,2,4-triazol-3-yl)-1-methoxy-1-(5-methyl-2-pyrimidinyl)-2-propanesulfonamide]",4.5
27,"COc1cccc(OC)c1-n1c(NS(=O)(=O)[C@@H](C)[C@H](OC)c2ncc(C)cn2)nnc1-c1cccc(S(=O)(=O)N(C)C)c1 [Example 73.0, 3-(4-(2,6-dimethoxyphenyl)-5-((((1S,2R)-2-methoxy-1-methyl-2-(5-methyl-2-pyrimidinyl)ethyl)sulfonyl)amino)-4H-1,2,4-triazol-3-yl)-N,N-dimethylbenzenesulfonamide]",31
